{
  "source": "patent EP0133934A2",
  "about": "“Pharmacologically active 1,3,4-thiadiazol-(3,2-a)-thieno-(2,3-d)-pyrimidin-5-(H)one derivatives” (NIKEPHARMA S.r.l., priority 1983, dated 1985)",
  "key": {"carrageenin oedema": {"system": "carrageenin oedema", "experiment": "Antiinflammatory activity: carrageenin oedema in the rat", "type": "in vivo", "conditions": "po, 4 h, os, 100 mg/kg, one hour before carrageenin, read-out: OEDEMA INHIBITION % at the fourth hour", "protocol": "(§1) The activity tests were carried out on male Spra gue-Dawley rats weighing 200+20 g and on male Swiss mice weighing 26+3 g.\n(§2) The test compounds were administered orally by means of gastroesophageal tube, in the form of a suspen sion in a 10 ml/kg mucilage of 5% gum arabic; and intraperitoneally in the form of an aqueous suspen sion added with a few drops of Tween 80, in the con stant volume of 10 ml/kg.\nThe compounds under test and the control ones were administered orally one hour before the injection of 0.1 ml of 1% carrageenin in the right paw of the animals.\nThe volume of the paw was measured by means of a plethysmograph immediately before the injection and 2, 4 and 6 hours after.\nThe results were expressed as percentage inhibi tion of the oedema in the treated animals in comparison with the control animals, at the time of the maximum oedema development (fourth hour after the carrageenin injection)."}, "[1]": {"system": "Writhing test induced by phenyl-benzoquinone", "experiment": "Phenylbenzoquinone writhing test in the rat", "type": "in vivo", "protocol": "as §1, §2"}, "acetic acid peritonitis": {"system": "acetic acid peritonitis", "experiment": "Anti-exudative activity: acetic acid peritonitis in the rat", "type": "in vivo", "conditions": "for EXUDATE VOLUME ml ± E.S.: controls 2.58 ± 0.18", "protocol": "The test was carried out according to the procedure described by Arrigoni-Martelli (Boll.Chim. Far. 107, 29, 1968). This method is based upon the evaluation of the anti-exudative effect of a drug at the peritoneal level, following a intraperitoneal injection of 10 ml/kg of a 0.5% acetic acid solution.\nThe compounds under test were administered oral ly one hour before the inflammatory agent; 30 minutes after the treatment the animals were killed and the fluid from the peritoneal cavity was drawn and measured.\nThe test compounds were administered by oral route 1 hour before intraperitoneal injection of acetic acid (10 ml/kg of a 0.5% solution).\nThe anti-exudative activity was determined on the basis of the peritoneal exudate of the treated animals, in comparison with the controls."}, "gastric ulceration": {"system": "gastric ulceration", "type": "in vivo, rat", "conditions": "os, 400 mg/kg", "protocol": "To rats fasted for 18 hours, with water ad libitum, were administered the compounds under test at \"0\" time and after 2 hours. Control rats were treated with established anti-inflammatory agents.\n6 Hours after the beginning of the test, the animals were killed by ether inhalation.\nGastric ulceration was assessed on the ground of values ranging from 0 to 4: • 0 = no ulceration; • 1 = slight iperhaemia and/or a few ulcers; • 2 = severe iperhaemia and many punctiform ulcers; • 3 = severe submucosal hemorrage, one large ulcer and many punctiform ulcers; • 4 severe submucosal hemorrage and many large ulcers.\nThe ulcerogenic index was measured by the following formula (Lwoff. J.M., J. Pharmacol., 2, 81, 1971): [formula]"}, "[2]": {"system": "phenylbenzoquinone writhing test", "experiment": "Phenylbenzoquinone writhing test in the mouse (ED50 and duration of effect)", "type": "in vivo", "conditions": "for % INHI-BITION / N° OF WRITHES IN 10' ml ± E.S.: Table 6, oral, one hour before the test; for N° OF WRITHES IN 10' ml ± E.S.: controls 52.4 ± 1.69; for % INHIBITION / Nº OF WRITHES IN 10' ml ± E.S.: Table 7, oral 1 mg/kg; for Nº OF WRITHES IN 10' ml ± E.S.: controls 53.2 ± 1.26", "protocol": "The analgesic effect was determined by the number of writhes of the abdomen recorded during 10 minutes (from 5 to 15 minutes after the phenylbenzo quinone injection)."}, "Carrageenin pleuritis": {"system": "Carrageenin pleuritis", "experiment": "Carrageenin pleuritis in the rat", "type": "in vivo", "conditions": "for EXUDATE VOLUME: 30 min. before carrageenin and 6 hours after, exudate at 18 hours, controls 2.76 ± 0.38", "protocol": "Compound HA-34 was tested for the protective activity against the exudative pleuritis reaction induced by carrageenin. HA-34 was administered 30 min. before the injection of carrageenin, and 6 hours after it. The experiment was carried out on male Spra- gue-Dawley rats, anestethized with ethyl urethane, which were subjected, in their right pleural cavity, to injection of 1.5 ml of air and then 0.1 ml of a 1% carrageenin solution, in sterile normal saline, according to the procedure by Van Armann et al. (J. Pharmac. Exp. Ther., 150, 328, 1965). Indometha cin and Piroxicam were employed as the control drugs, under the same conditions. 18 Hours after the intrapleuric carrageenin injec tion, the animals were killed by means of ether inhalation, and the pleuric exudate was collected and measured."}, "[3]": {"conditions": "30 min. before phenylbenzoquinone"}},
  "data": [
    {"smiles": "CSc1nn2c(=O)c3c4c(sc3nc2s1)CCCC4", "note": "[HA 34, 2-Methyl-mercapto-6,7,8,9-tetrahydro-5H[1]-benao-thieno[2,3-d]-1,3,4-thiadiazole[3,2-a]pyrimidin-5[H]-one]", "values": [
      {"measurement": "inhibition in vivo at 100 mg/kg", "setting": "carrageenin oedema", "result": "48.8 ± 0.91", "unit": "%"},
      {"measurement": "inhibition in vivo at 0.5 mg/kg", "setting": "[1]; Rattus norvegicus, po, 10 min, os, 0.5 mg/kg, read-out: % INHIBI-TION", "result": 24, "unit": "%"},
      {"measurement": "inhibition in vivo at 5 mg/kg", "setting": "[1]; Rattus norvegicus, po, 10 min, os, 5 mg/kg, read-out: % INHIBI-TION", "result": 81, "unit": "%"},
      {"measurement": "analgesic action", "setting": "[1]; oral doses of 5 and 0.5 mg/kg, result in words", "result": "the more active of the tested compounds"},
      {"measurement": "inhibition in vivo at 10 mg/kg", "setting": "acetic acid peritonitis; Rattus norvegicus, po, Table 4, os, 10 mg/kg", "result": 64, "unit": "%"},
      {"measurement": "inhibition in vivo at 0.1 mg/kg", "setting": "acetic acid peritonitis; Rattus norvegicus, po, Table 8, oral, 0.1 mg/kg", "result": 26.7, "unit": "%"},
      {"measurement": "inhibition in vivo at 0.5 mg/kg", "setting": "acetic acid peritonitis; Rattus norvegicus, po, Table 8, oral, 0.5 mg/kg", "result": 48, "unit": "%"},
      {"measurement": "inhibition in vivo at 1 mg/kg", "setting": "acetic acid peritonitis; Rattus norvegicus, po, Table 8, oral, 1 mg/kg", "result": 53.2, "unit": "%"},
      {"measurement": "inhibition in vivo at 10 mg/kg", "setting": "acetic acid peritonitis; Rattus norvegicus, po, Table 8, oral, 10 mg/kg", "result": 78.8, "unit": "%"},
      {"measurement": "inhibition in vivo at 20 mg/kg", "setting": "acetic acid peritonitis; Rattus norvegicus, po, Table 8, oral, 20 mg/kg", "result": 94.2, "unit": "%"},
      {"measurement": "ED50", "setting": "acetic acid peritonitis; Rattus norvegicus, oral administration 1 hour before i.p. acetic acid", "result": 0.7, "unit": "mg/kg"},
      {"measurement": "PERITONEAL EXUDATE ml ± E.S.", "setting": "acetic acid peritonitis; Table 4, os, 10 mg/kg, controls 2.91 ± 0.12", "result": "0.75 ± 0.11", "unit": "mL"},
      {"measurement": "EXUDATE VOLUME ml ± E.S.", "setting": "acetic acid peritonitis; Table 8, oral, 0.1 mg/kg, 1 hour before acetic acid", "result": "1.89 ± 0.14", "unit": "mL"},
      {"measurement": "EXUDATE VOLUME ml ± E.S.", "setting": "acetic acid peritonitis; Table 8, oral, 0.5 mg/kg", "result": "1.34 ± 0.07", "unit": "mL"},
      {"measurement": "EXUDATE VOLUME ml ± E.S.", "setting": "acetic acid peritonitis; Table 8, oral, 1 mg/kg", "result": "1.20 ± 0.10", "unit": "mL"},
      {"measurement": "EXUDATE VOLUME ml ± E.S.", "setting": "acetic acid peritonitis; Table 8, oral, 10 mg/kg", "result": "0.54 ± 0.08", "unit": "mL"},
      {"measurement": "EXUDATE VOLUME ml ± E.S.", "setting": "acetic acid peritonitis; Table 8, oral, 20 mg/kg", "result": "0.15 ± 0.07", "unit": "mL"},
      {"measurement": "ULCERA-TION INDEX", "setting": "gastric ulceration", "result": 0},
      {"measurement": "% ANIMALS WITH ULCERS", "setting": "gastric ulceration; at 0 time and after 2 hours, killed at 6 hours", "result": 0, "unit": "%"},
      {"measurement": "ULCERA-TION DEGREE", "setting": "gastric ulceration; scale 0 to 4", "result": 0},
      {"measurement": "ED50", "setting": "[2]; Mus musculus, 1 h, oral administration one hour before the test, read-out: ED50", "result": 1, "unit": "mg/kg"},
      {"measurement": "% INHI-BITION", "setting": "[2]; 0.1 mg/kg", "result": 15.8, "unit": "%"},
      {"measurement": "N° OF WRITHES IN 10' ml ± E.S.", "setting": "[2]; 0.1 mg/kg", "result": "44.1 ± 1.12"},
      {"measurement": "% INHI-BITION", "setting": "[2]; 0.5 mg/kg", "result": 31.3, "unit": "%"},
      {"measurement": "N° OF WRITHES IN 10' ml ± E.S.", "setting": "[2]; 0.5 mg/kg", "result": "36.0 ± 1.33"},
      {"measurement": "% INHI-BITION", "setting": "[2]; 1 mg/kg", "result": 67.2, "unit": "%"},
      {"measurement": "N° OF WRITHES IN 10' ml ± E.S.", "setting": "[2]; 1 mg/kg", "result": "17.2 ± 0.87"},
      {"measurement": "% INHI-BITION", "setting": "[2]; 2 mg/kg", "result": 73.6, "unit": "%"},
      {"measurement": "N° OF WRITHES IN 10' ml ± E.S.", "setting": "[2]; 2 mg/kg", "result": "13.8 ± 1.12"},
      {"measurement": "% INHI-BITION", "setting": "[2]; 5 mg/kg", "result": 79.8, "unit": "%"},
      {"measurement": "N° OF WRITHES IN 10' ml ± E.S.", "setting": "[2]; 5 mg/kg", "result": "10.6 ± 1.06"},
      {"measurement": "% INHIBITION", "setting": "[2]; [3]", "result": 63.9, "unit": "%"},
      {"measurement": "Nº OF WRITHES IN 10' ml ± E.S.", "setting": "[2]; [3]", "result": "19.2 ± 1.18"},
      {"measurement": "% INHIBITION", "setting": "[2]; 1 h before phenylbenzoquinone", "result": 65.4, "unit": "%"},
      {"measurement": "Nº OF WRITHES IN 10' ml ± E.S.", "setting": "[2]; 1 h before phenylbenzoquinone", "result": "18.4 ± 1.07"},
      {"measurement": "% INHIBITION", "setting": "[2]; 3 h before phenylbenzoquinone", "result": 69.9, "unit": "%"},
      {"measurement": "Nº OF WRITHES IN 10' ml ± E.S.", "setting": "[2]; 3 h before phenylbenzoquinone", "result": "16.0 ± 1.26"},
      {"measurement": "% INHIBITION", "setting": "[2]; 4 h before phenylbenzoquinone", "result": 65.4, "unit": "%"},
      {"measurement": "Nº OF WRITHES IN 10' ml ± E.S.", "setting": "[2]; 4 h before phenylbenzoquinone", "result": "18.4 ± 1.74"},
      {"measurement": "% INHIBITION", "setting": "[2]; 6 h before phenylbenzoquinone", "result": 62.0, "unit": "%"},
      {"measurement": "Nº OF WRITHES IN 10' ml ± E.S.", "setting": "[2]; 6 h before phenylbenzoquinone", "result": "20.2 ± 1.24"},
      {"measurement": "% INHIBITION", "setting": "[2]; 8 h before phenylbenzoquinone", "result": 59.4, "unit": "%"},
      {"measurement": "Nº OF WRITHES IN 10' ml ± E.S.", "setting": "[2]; 8 h before phenylbenzoquinone", "result": "21.6 ± 1.32"},
      {"measurement": "% INHIBITION", "setting": "[2]; 24 h before phenylbenzoquinone", "result": 58.3, "unit": "%"},
      {"measurement": "Nº OF WRITHES IN 10' ml ± E.S.", "setting": "[2]; 24 h before phenylbenzoquinone", "result": "22.2 ± 1.46"},
      {"measurement": "% INHIBITION", "setting": "[2]; 32 h before phenylbenzoquinone", "result": 30.6, "unit": "%"},
      {"measurement": "Nº OF WRITHES IN 10' ml ± E.S.", "setting": "[2]; 32 h before phenylbenzoquinone", "result": "36.9 ± 2.01"},
      {"measurement": "duration of action", "setting": "[2]; oral 1 mg/kg, result in words", "result": "longer lasting than that of Indomethacin and substantially comparable with that of Piroxicam"},
      {"measurement": "% INHIBITION", "setting": "Carrageenin pleuritis; 5 mg/kg", "result": 34.8, "unit": "%"},
      {"measurement": "EXUDATE VOLUME", "setting": "Carrageenin pleuritis; 5 mg/kg", "result": "1.80 ± 0.29"},
      {"measurement": "% INHIBITION", "setting": "Carrageenin pleuritis; 10 mg/kg", "result": 63.0, "unit": "%"},
      {"measurement": "EXUDATE VOLUME", "setting": "Carrageenin pleuritis; 10 mg/kg", "result": "1.02 ± 0.26"},
      {"measurement": "inhibiting action on the pleuric exudative reaction", "setting": "Carrageenin pleuritis; at the tested doses, result in words", "result": "significant inhibiting action"}
    ]}
  ]
}
